The results in this text go back to patent US8916565B2, “Pyrrolopyrazine-spirocyclic piperidine amides as modulators of ion channels” (priority 2011, dated 2014).

Molecules are shown by their SMILES. pIC50: −log10 of the molar value.

human NaV subtype, like NaV 1.7, sequence (Q15858 whole entry): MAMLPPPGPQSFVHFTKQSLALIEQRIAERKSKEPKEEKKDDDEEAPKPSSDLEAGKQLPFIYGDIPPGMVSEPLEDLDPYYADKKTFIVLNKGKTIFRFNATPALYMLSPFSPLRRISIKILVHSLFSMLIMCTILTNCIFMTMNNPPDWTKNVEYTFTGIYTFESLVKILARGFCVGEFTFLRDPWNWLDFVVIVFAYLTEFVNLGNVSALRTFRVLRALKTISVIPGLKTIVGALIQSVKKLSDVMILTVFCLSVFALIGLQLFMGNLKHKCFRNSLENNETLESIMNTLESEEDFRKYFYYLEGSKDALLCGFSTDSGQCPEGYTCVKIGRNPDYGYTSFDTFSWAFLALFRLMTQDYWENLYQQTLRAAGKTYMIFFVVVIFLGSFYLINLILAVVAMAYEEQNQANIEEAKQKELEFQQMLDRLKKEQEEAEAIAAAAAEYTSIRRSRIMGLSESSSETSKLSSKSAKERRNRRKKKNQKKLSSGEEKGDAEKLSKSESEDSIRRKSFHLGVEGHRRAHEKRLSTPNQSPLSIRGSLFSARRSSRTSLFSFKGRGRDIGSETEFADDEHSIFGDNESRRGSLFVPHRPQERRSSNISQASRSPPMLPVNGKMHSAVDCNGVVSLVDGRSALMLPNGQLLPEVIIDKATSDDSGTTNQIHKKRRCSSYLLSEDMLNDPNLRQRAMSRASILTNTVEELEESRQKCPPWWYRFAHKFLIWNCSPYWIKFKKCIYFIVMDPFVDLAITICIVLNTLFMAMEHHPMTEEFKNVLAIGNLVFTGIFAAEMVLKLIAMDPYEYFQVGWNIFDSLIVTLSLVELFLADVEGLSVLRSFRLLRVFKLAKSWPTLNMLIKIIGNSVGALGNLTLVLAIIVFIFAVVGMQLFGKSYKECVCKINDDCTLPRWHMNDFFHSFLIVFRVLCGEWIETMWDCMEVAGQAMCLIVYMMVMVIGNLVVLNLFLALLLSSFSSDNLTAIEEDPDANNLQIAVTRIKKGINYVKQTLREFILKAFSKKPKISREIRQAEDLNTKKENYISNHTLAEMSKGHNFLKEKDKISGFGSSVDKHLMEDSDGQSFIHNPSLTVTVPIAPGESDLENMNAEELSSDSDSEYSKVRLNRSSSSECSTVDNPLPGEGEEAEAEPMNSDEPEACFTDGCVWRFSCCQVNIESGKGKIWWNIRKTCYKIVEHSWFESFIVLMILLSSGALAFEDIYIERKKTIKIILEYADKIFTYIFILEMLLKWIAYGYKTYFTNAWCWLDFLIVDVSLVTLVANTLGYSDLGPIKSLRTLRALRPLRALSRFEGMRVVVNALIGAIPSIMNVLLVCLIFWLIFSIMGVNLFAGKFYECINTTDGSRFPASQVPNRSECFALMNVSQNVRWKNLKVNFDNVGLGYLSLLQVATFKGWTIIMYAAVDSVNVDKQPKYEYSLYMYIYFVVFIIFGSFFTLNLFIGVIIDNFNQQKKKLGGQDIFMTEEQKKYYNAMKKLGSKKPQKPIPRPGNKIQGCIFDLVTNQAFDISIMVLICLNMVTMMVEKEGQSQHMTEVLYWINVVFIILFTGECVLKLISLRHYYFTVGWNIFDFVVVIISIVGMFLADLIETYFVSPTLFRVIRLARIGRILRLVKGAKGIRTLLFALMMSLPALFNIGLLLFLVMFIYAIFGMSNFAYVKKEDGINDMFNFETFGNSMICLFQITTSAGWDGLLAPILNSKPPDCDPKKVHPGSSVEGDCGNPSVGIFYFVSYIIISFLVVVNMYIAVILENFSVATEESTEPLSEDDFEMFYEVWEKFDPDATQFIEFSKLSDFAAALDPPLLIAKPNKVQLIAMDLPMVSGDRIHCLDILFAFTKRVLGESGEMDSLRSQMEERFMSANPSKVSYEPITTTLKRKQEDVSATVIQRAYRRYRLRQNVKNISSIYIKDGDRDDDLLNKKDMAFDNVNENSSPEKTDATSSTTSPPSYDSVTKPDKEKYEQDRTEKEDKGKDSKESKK

The test has as its target human NaV subtype, like NaV 1.7 (Homo sapiens, UniProt Q15858). The test can be described thus: E-VIPR optical membrane potential assay with electrical stimulation. The test is classed as cell-based. The settings on record: active against one or more sodium channels; Table 3 does not name the assay or NaV subtype; read-out: Binned Activity Data (IC50).
As to `COc1cc(C(=O)N2CCC3(CC2)NC(C)Cn2c(C(F)(F)F)ccc23)ccc1OC(C)C` (centres unmarked) [Compound 320], the pIC50 was no less than 5.70. `COc1ccc(C(=O)N2CCC3(CC2)c2ccc(C(F)(F)F)n2CCN3C)cc1OC` [Compound 321]: the pIC50 is less than 5.30. Next, `Cc1nc(C(=O)N2CCC3(CC2)c2ccc(C(=O)C(F)(F)F)n2CCN3C)ccc1O` [Compound 322]: no less than 5.70; `CN1CCn2c(Cl)ccc2C12CCN(C(=O)c1ccc(OC(F)(F)F)cc1)CC2` [Compound 323]: less than 5.30. The same measure for `CC(C)Oc1ccc(C(=O)N2CCC3(CC2)NCC(C)n2c(C(=O)C(F)(F)F)ccc23)cc1Cl` (centres unmarked) [Compound 324]: no less than 5.70; for `CC(C)Oc1ccc(C(=O)N2CCC3(CC2)c2ccc(C(=O)C(F)(F)F)n2C(C)CN3C)cc1Cl` (centres unmarked) [Compound 325]: no less than 5.70. Regarding `Cc1cc(C(=O)N2CCC3(CC2)c2ccc(C(F)(F)C(F)(F)F)n2CCN3C)ccc1S(=O)(=O)C(C)C` [Compound 326], the pIC50 was no less than 5.70. As for `COc1cc(C(=O)N2CC[C@@]3(c4ccc(C(F)(F)F)n4CCN3C)[C@H](F)C2)ccc1OC(C)C` [Compound 327], the pIC50 was no less than 5.70. Take `COc1cc(C(=O)N2CC[C@]3(C[C@H]2C)c2ccc(C(F)(F)F)n2CCN3C)ccc1OC(C)C` [Compound 328]: the pIC50 was less than 5.30. With `CC(=O)c1ccc2n1CCN(C)C21CCN(C(=O)c2ccc(OCC3CC3)c(F)c2)CC1` [Compound 329], the pIC50 was 5.30 to 5.70. As to `CN1CCn2c(Cl)ccc2C12CCN(C(=O)c1ccc(OCC(F)(F)F)cc1)CC2` [Compound 330], the pIC50 was 5.30 to 5.70.

On to `CCc1ccc(C(=O)N2CCC3(CC2)c2ccc(C(=O)C(F)(F)F)n2CCN3C)nc1` [Compound 331], for which the pIC50 is less than 5.30. `Cc1cc(C(=O)N2CCC3(CC2)c2ccc(C(F)(F)F)n2CCN3C2CC2)ccc1OCC(C)(C)O` [Compound 332]: the pIC50 is no less than 5.70. `Cc1cc(C(=O)N2CCC3(CC2)c2ccc(C(F)(F)F)n2CCN3C2CC2)ccc1OC(C)C` [Compound 333]: the pIC50 was no less than 5.70. The same measure for `CN1CCn2c(Cl)ccc2C12CCN(C(=O)c1ccc(Cc3ccccc3)cc1)CC2` [Compound 334]: less than 5.30; for `Cc1cc(C(=O)N2CCC3(CC2)c2ccc(C(F)(F)F)n2CCN3C)ccc1OCCO` [Compound 335]: no less than 5.70; for `COCCN1CCn2c(C(F)(F)F)ccc2C12CCN(C(=O)c1ccc(OC(C)C)c(CO)c1)CC2` [Compound 336]: no less than 5.70.

For `CC(C)Oc1ccc(C(=O)N2CCC3(CC2)NCC(C)(C)n2c(C(F)(F)F)ccc23)cc1F` [Compound 337], the negative-log IC50 (pIC50) was no less than 5.70. As for `COc1ccc(C(=O)N2CCC3(CC2)c2ccc(C(=O)C(C)C)n2CCN3C)cc1C` [Compound 338], the negative logarithm of the IC50 (pIC50) is no less than 5.70.

With `CC(C)Cc1ccc(C(=O)N2CCC3(CC2)c2ccc(C(=O)C(F)(F)F)n2CCN3C)cc1` [Compound 339], the pIC50 is no less than 5.70.

Regarding `Cc1cc(C(=O)N2CCC3(CC2)c2c(Br)cc(C(F)(F)F)n2CCN3C)ccc1OC(C)C` [Compound 340], the pIC50 was no less than 5.70.

Regarding `COc1ccc(C(=O)N2CCC3(CC2)NCC(C)n2c(C(=O)C(F)(F)F)ccc23)cc1Cl` (centres unmarked) [Compound 341], the pIC50 is no less than 5.70. Regarding `CC(=O)c1ccc2n1CCN(C)C21CCN(C(=O)c2ccc(OC(C)C)cc2)CC1` [Compound 342], the pIC50 was less than 5.30. Consider `CCNS(=O)(=O)c1ccc(C(=O)N2CCC3(CC2)c2ccc(C(F)(F)F)n2CCN3C)cc1C` [Compound 343], for which the pIC50 was no less than 5.70.

Turning to `CC(=O)c1cc2n(c1)CC(C)(C)NC21CCN(C(=O)c2ccc(C3CCCCC3)cc2)CC1` [Compound 344], the pIC50 is 5.30 to 5.70.

As to `CCc1ccc(C(=O)N2CCC3(CC2)c2ccc(C(F)(F)F)n2CCN3C)nc1` [Compound 345], the pIC50 is less than 5.30. Turning to `CN1CCn2c(C(F)(F)F)ccc2C12CCN(C(=O)c1cccnc1N1CCCCC1)CC2` [Compound 346], the pIC50 was no less than 5.70. With `Cc1cc(C(=O)N2CCC3(CC2)c2ccc(C(F)(F)F)n2CCN3C)ccc1S(=O)(=O)N(C)C` [Compound 347], the pIC50 is no less than 5.70. Consider `COc1cc(C(=O)N2CCC3(CC2)c2c(Br)cc(C(F)(F)F)n2CCN3C)ccc1OC(C)C` [Compound 348], for which the pIC50 was no less than 5.70. Regarding `C[C@H]1Cn2c(C(=O)C(F)(F)F)ccc2C2(CCN(C(=O)c3ccc(C(C)(C)O)cc3)CC2)N1C` [Compound 349], the pIC50 is no less than 5.70. As to `Cc1cc(C(=O)N2CC[C@]3(c4ccc(C(F)(F)F)n4CCN3C)[C@H](F)C2)ccc1C(C)(C)O` [Compound 350], the pIC50 is no less than 5.70. For the compound `COc1ccc(C(=O)N2CCC3(CC2)c2ccc(C(F)(F)F)n2CCN3C)cc1` [Compound 351], the pIC50 is less than 5.30. Turning to `CN1CCn2c(Cl)ccc2C12CCN(C(=O)c1ccc(S(=O)(=O)NC3CC3)cc1)CC2` [Compound 352], the pIC50 is 5.30 to 5.70. For `COc1cc(C(=O)N2CCC3(CC2)NC(C)(C)Cn2c(C(C)=O)ccc23)ccc1C(C)(C)C` [Compound 353], the pIC50 was no less than 5.70. As to `CC(C)(O)c1ccc(C(=O)N2CCC3(CC2)c2ccc(C(F)(F)F)n2CCN3CC(F)F)cc1` [Compound 354], the pIC50 is no less than 5.70. Turning to `Cc1cc(C(=O)N2CCC3(CC2)c2ccc(C(=O)C(F)(F)F)n2C(C)CN3C)ccc1OC(C)C` (centres unmarked) [Compound 355], the pIC50 is no less than 5.70. Next, `Cc1cc(C(=O)N2CCC3(CC2)NCCn2c(C(F)(F)F)ccc23)ccc1OC(C)C` [Compound 356]: no less than 5.70; `COc1nc(C(=O)N2CCC3(CC2)c2ccc(C(=O)C(F)(F)F)n2CCN3C)ccc1OC(C)C` [Compound 357]: no less than 5.70; `CN1CCn2c(C(=O)C(F)(F)F)ccc2C12CCN(C(=O)c1ccc(C(C)(C)O)cc1)CC2` [Compound 358]: 5.30 to 5.70. As to `CC(C)C(=O)c1ccc2n1CCN(C)C21CCN(C(=O)c2ccc(COCCC(F)(F)F)cc2)CC1` [Compound 359], the pIC50 is no less than 5.70.

`COc1cc(C(=O)N2CCC3(CC2)c2ccc(C(=O)C(F)(F)F)n2CCN3C)ccc1OCCOC(F)(F)F` [Compound 360]: the pIC50 was no less than 5.70.

For `CC(=O)c1ccc2n1C(C)(C)CN(C)C21CCN(C(=O)c2ccc(C3CCCCC3)cc2)CC1` [Compound 361], the pIC50 was no less than 5.70. As to `COc1cc(C(=O)N2CCC3(CC2)c2ccc(C(F)(F)F)n2CCN3C=O)ccc1OC(C)C` [Compound 362], the pIC50 is less than 5.30.

`CC(C)S(=O)(=O)c1ccc(C(=O)N2CCC3(CC2)c2c(F)cc(C(F)(F)F)n2CCN3C)cc1` [Compound 363]: the pIC50 was no less than 5.70. Next, `COc1cc(C(=O)N2CCC3(CC2)NC(C)(C)Cn2cc(C(C)=O)cc23)ccc1C(C)(C)C` [Compound 364]: less than 5.30. As for `CN1CCn2c(C(F)(F)F)ccc2C12CCN(C(=O)c1cc3occc3n1C)CC2` [Compound 365], the negative-log IC50 (pIC50) was no less than 5.70. Take `CC(C)(O)c1ccc(C(=O)N2CCC3(CC2)c2ccc(C(F)(F)F)n2CCN3CC(F)(F)F)cc1` [Compound 366]: the negative-log IC50 (pIC50) is no less than 5.70. The same measure for `CC(C)Oc1ccc(C(=O)N2CCC3(CC2)NCCn2c(C(F)(F)F)ccc23)c(F)c1` [Compound 367]: no less than 5.70. Regarding `CN1CCn2c(C(=O)C3CC3)ccc2C12CCN(C(=O)c1ccc(C(C)(C)O)c(F)c1)CC2` [Compound 368], the pIC50 was no less than 5.70.

For the compound `CN1CCn2c(C(=O)C(F)(F)F)ccc2C12CCN(C(=O)c1ccc(OCc3ccccc3)cc1)CC2` [Compound 369], the pIC50 is no less than 5.70. Take `CN1CCn2c(C(F)(F)F)ccc2C12CCN(C(=O)c1ccc(C(C)(C)O)c(F)c1)CC2` [Compound 370]: the pIC50 is no less than 5.70. The same measure for `Cc1cc(C(F)F)n2ncc(C(=O)N3CCC4(CC3)c3ccc(C(F)(F)F)n3CCN4C)c2n1` [Compound 371]: no less than 5.70; for `COc1cc(C(=O)N2CCC3(CC2)NCCn2c(C(F)(F)F)ccc23)ccc1OC(C)C` [Compound 372]: no less than 5.70.

With `COc1cc(C(=O)N2CCC3(CC2)c2ccc(C(C)=O)n2CCN3C)ccc1COCCC(F)(F)F` [Compound 373], the pIC50 is no less than 5.70. The same measure for `O=C(c1ccc(Oc2ccccc2)cc1)N1CCC2(CC1)NCCn1c(C(F)(F)F)ccc12` [Compound 374]: less than 5.30; for `COc1cc(C(=O)N2CCC3(CC2)NC(C)(C)Cn2c(C(=O)C(F)(F)F)ccc23)ccc1OC(C)C` [Compound 375]: no less than 5.70; for `Cc1cc(C(=O)N2CCC3(CC2)c2ccc(C(=O)C(F)(F)F)n2CCN3C)ccc1F` [Compound 376]: 5.30 to 5.70.

Consider `COc1ccc(C(=O)N2CCC3(CC2)NC(C)(C)Cn2c(C(=O)C(F)(F)F)ccc23)cc1C(F)(F)F` [Compound 377], for which the negative logarithm of the IC50 (pIC50) is no less than 5.70.

As for `Cc1cc(N2CCCC2)n2ncc(C(=O)N3CCC4(CC3)c3ccc(C(F)(F)F)n3CCN4C)c2n1` [Compound 378], the pIC50 was no less than 5.70. Turning to `COc1nc(C(=O)N2CCC3(CC2)c2c(Cl)cc(C(F)(F)F)n2CCN3C)ccc1OC(C)C` [Compound 379], the pIC50 is no less than 5.70. Next, `CNS(=O)(=O)c1ccc(C(=O)N2CCC3(CC2)c2ccc(C(F)(F)C(F)(F)F)n2CCN3C)cc1` [Compound 381]: no less than 5.70. The same measure for `CCc1ccc(C(=O)N2CCC3(CC2)c2ccc(C(C)=O)n2CCN3C)cc1OC` [Compound 382]: 5.30 to 5.70.

On to `Cc1cc(C(=O)N2CCC3(CC2)c2ccc(C(=O)C(F)(F)F)n2CCN3C)ccc1-c1cnn(C)c1` [Compound 383], for which the pIC50 is 5.30 to 5.70.

In the case of `Cc1cc(C(=O)N2CCC3(CC2)c2c(F)cc(C(F)(F)F)n2CCN3C)ccc1C1(O)CCC1` [Compound 384], the negative logarithm of the IC50 (pIC50) was no less than 5.70.

For `CC[C@H](C)Oc1ccc(C(=O)N2CCC3(CC2)c2ccc(C(F)(F)C(F)(F)F)n2CCN3C)cc1OC` [Compound 385], the pIC50 was no less than 5.70.

On to `CCCCOc1ccc(C(=O)N2CCC3(CC2)c2ccc(Cl)n2CCN3C)cc1` [Compound 386], for which the pIC50 is no less than 5.70.

As for `CN1CCn2c(Cl)ccc2C12CCN(C(=O)c1ccc(C(C)(C)O)c(F)c1)CC2` [Compound 387], the pIC50 was no less than 5.70. The same measure for `CC(=O)c1ccc2n1CCN(C)C21CCN(C(=O)c2ccc(OCC3CC3)cc2)CC1` [Compound 388]: less than 5.30.
